One test relates to HEK293. Put plainly: cells. The settings on record: Homo sapiens, ATCC CRL1573, HEK293; ASSAY_TEST Inhibition of Cell Viability; detection method Resazurin; Fluorescence (ex560/em590); MEDIA DMEM with 10% FBS; plate type 384well; TC; CORNING #3712; time 18 hr. Format: functional. Background: The colour change of resazurin is a common sign of viable cells or microbes.
A further test has as its system Staphylococcus aureus. Put plainly: microbe, parasite or virus in culture. Conditions: ATCC 43300, 18 h, ASSAY_TEST Inhibition of Bacterial Growth, detection method Absorption (OD600), MEDIA CAMHB, plate type 384well, NBS, CORNING #3640.
A further test relates to Escherichia coli. In words: microbe, parasite or virus in culture. The settings on record: ATCC 25922, 18 h, ASSAY_TEST Inhibition of Bacterial Growth, detection method Absorption (OD600), MEDIA CAMHB, plate type 384well, NBS, CORNING #3640.
For another test, the system named is Klebsiella pneumoniae. In words: microbe, parasite or virus in culture. The settings on record: ATCC 700603, 18 h, ASSAY_TEST Inhibition of Bacterial Growth, detection method Absorption (OD600), MEDIA CAMHB, plate type 384well, NBS, CORNING #3640.
The test system of the next test is Pseudomonas aeruginosa. Put plainly: microbe, parasite or virus in culture. The settings on record: ATCC 27853, 18 h, ASSAY_TEST Inhibition of Bacterial Growth, detection method Absorption (OD600), MEDIA CAMHB, plate type 384well, NBS, CORNING #3640.
The next test concerns Acinetobacter baumannii. In words: microbe, parasite or virus in culture. The settings on record: ATCC 19606, 18 h, ASSAY_TEST Inhibition of Bacterial Growth, detection method Absorption (OD600), MEDIA CAMHB, plate type 384well, NBS, CORNING #3640.
The next test deals with Candida albicans. In words: microbe, parasite or virus in culture. Conditions: ATCC 90028, ASSAY_TEST Inhibition of Fungal Growth, detection method Absorption (OD530), plate type 384well, NBS, CORNING #3640.

In brackets after ≈: the same amount, converted by molar mass. A value given as a limit tells only on which side of the number the result lay.

In general, CC50 refers to the concentration giving 50% cytotoxicity. A high value points to better tolerance by the cells.

Description for Acinetobacter baumannii: Antibacterial activity against Acinetobacter baumannii ATCC 19606 (CO-ADD:GN_034); MIC in CAMBH media using NBS plates, by OD600
Description for Candida albicans: Antifungal activity against Candida albicans ATCC 90028 (CO-ADD:FG_001); MIC in YNB media using NBS plates, by OD630
Description for Cryptococcus neoformans: Antifungal activity against Cryptococcus neoformans H99 ATCC 208821 (CO-ADD:FG_002); MIC in YNB media using NBS plates, by Resazurin OD(600-570)
Description for Escherichia coli: Antibacterial activity against Escherichia coli ATCC 25922 (CO-ADD:GN_001); MIC in CAMBH media using NBS plates, by OD(600)
Description for Klebsiella pneumoniae: Antibacterial activity against Klebsiella pneumoniae MDR ATCC 70063 (CO-ADD:GN_003); MIC in CAMBH media using NBS plates, by OD(600)
Description for Pseudomonas aeruginosa: Antibacterial activity against Pseudomonas aeruginosa ATCC 27853 (CO-ADD:GN_042); MIC in CAMBH media using NBS plates, by OD(600)
Description for Staphylococcus aureus: Antibacterial activity against Staphylococcus aureus MRSA ATCC 43300 (CO-ADD:GP_020); MIC in CAMBH media, using NBS plates, by OD(600)

Turning to `O=C(Nc1cccnc1)c1c(O)c2cccc3c2n(c1=O)CC3`, in the test with HEK293, the cytotoxic concentration (CC50) is greater than 10 µM. Also, the MIC with Cryptococcus neoformans, against Staphylococcus aureus, with Escherichia coli, against Klebsiella pneumoniae, in the test with Pseudomonas aeruginosa and against Acinetobacter baumannii was greater than 10 µM throughout. In the test with Candida albicans, the MIC was greater than 10 µM.

On to `O=C(COc1cccc(F)c1)Nc1nc(-c2ccccn2)cs1`, for which the CC50 with HEK293 is greater than 10 µM. Besides, the MIC against Cryptococcus neoformans, with Staphylococcus aureus, in the test with Escherichia coli, against Klebsiella pneumoniae, against Pseudomonas aeruginosa and with Acinetobacter baumannii was greater than 10 µM each time. Also, the MIC against Candida albicans is greater than 10 µM.

In the test with HEK293, `COc1cccc(-c2nc3c(N4CCCC4)cccc3n2CC2CCCN2)n1` (configuration not stated) displayed a CC50 greater than 10 µM. Besides, the MIC was greater than 10 µM against Cryptococcus neoformans; 10 µM (≈ 3.77 µg/mL) with Staphylococcus aureus; greater than 10 µM in the test on Escherichia coli; greater than 10 µM against Klebsiella pneumoniae; greater than 10 µM against Pseudomonas aeruginosa; greater than 10 µM with Acinetobacter baumannii. In the test on Candida albicans, the MIC is greater than 10 µM.

`O=C(c1ccco1)N(CCCn1ccnc1)c1nc2c(Cl)cccc2s1` registered a CC50 in the test on HEK293 greater than 10 µM. Besides, the MIC against Cryptococcus neoformans, with Staphylococcus aureus, against Escherichia coli, in the test with Klebsiella pneumoniae, in the test with Pseudomonas aeruginosa and with Acinetobacter baumannii was greater than 10 µM each time. In the test with Candida albicans, this molecule showed an MIC greater than 10 µM.

Turning to `CC(=O)N1CCN(c2ccc(Oc3ccc(Cl)cc3O)cc2)CC1`, in the test with HEK293, the CC50 is greater than 10 µM. In addition, the MIC in the test with Cryptococcus neoformans, against Staphylococcus aureus, against Escherichia coli, against Klebsiella pneumoniae, in the test with Pseudomonas aeruginosa and in the test with Acinetobacter baumannii was greater than 10 µM each time. The molecule also returned an MIC in the test with Candida albicans greater than 10 µM.

Molecule `O=C(Nc1ccc2c(c1)B(O)OC2)c1ccccc1C(F)(F)F` displayed a CC50 in the test with HEK293 greater than 10 µM. The MIC against Cryptococcus neoformans, against Staphylococcus aureus, in the test on Escherichia coli, against Klebsiella pneumoniae, against Pseudomonas aeruginosa and in the test on Acinetobacter baumannii was greater than 10 µM in each case. Also, in the test with Candida albicans, the MIC was greater than 10 µM.

The molecule `Clc1cccc(C(c2ccc(CN3CCNCC3)cc2)n2ccnc2)c1` (configuration not stated) returned a CC50 in the test on HEK293 greater than 10 µM. Besides, the MIC against Cryptococcus neoformans, with Staphylococcus aureus, against Escherichia coli, with Klebsiella pneumoniae, in the test with Pseudomonas aeruginosa and in the test with Acinetobacter baumannii was greater than 10 µM throughout. Moreover, the MIC against Candida albicans was greater than 10 µM.

Take `O=C([C@@H](c1ccc(Cl)cc1)c1cccnc1)N1CCN(c2ccc(C(F)(F)F)cc2)CC1`: the 50% cytotoxic concentration (CC50) in the test with HEK293 is greater than 10 µM. In addition, the MIC with Cryptococcus neoformans, with Staphylococcus aureus, with Escherichia coli, against Klebsiella pneumoniae, with Pseudomonas aeruginosa and with Acinetobacter baumannii was greater than 10 µM throughout. Also, in the test on Candida albicans, the MIC was greater than 10 µM.

For `Cc1nn2c(=O)c3c([nH]c2c1-c1ccc(Cl)cc1)CCCC3`, in the test with HEK293, the CC50 was greater than 10 µM. For the same molecule, the MIC in the test with Cryptococcus neoformans, in the test on Staphylococcus aureus, in the test with Escherichia coli, against Klebsiella pneumoniae, against Pseudomonas aeruginosa and in the test on Acinetobacter baumannii was greater than 10 µM throughout. This molecule yielded an MIC with Candida albicans greater than 10 µM.

On to `CC(c1cc(Cl)cc(Cl)c1)N(C)c1ncc2c(N)nc(N)nc2n1` (configuration not stated), for which the CC50 with HEK293 is greater than 10 µM. Further, the MIC with Cryptococcus neoformans is greater than 10 µM; with Staphylococcus aureus, 10 µM (≈ 3.64 µg/mL); in the test with Escherichia coli, greater than 10 µM; against Klebsiella pneumoniae, greater than 10 µM; against Pseudomonas aeruginosa it was greater than 10 µM; against Acinetobacter baumannii, greater than 10 µM. The MIC in the test with Candida albicans was greater than 10 µM.

In turn, `CC(=O)NCC1CN(c2ccc(-c3ccc(CO)cc3)c(F)c2)C(=O)O1` (configuration not stated) gave a cytotoxic concentration (CC50) with HEK293 greater than 10 µM. Moreover, the MIC is greater than 10 µM in the test on Cryptococcus neoformans; 1.25 µM (≈ 0.448 µg/mL) against Staphylococcus aureus; greater than 10 µM in the test on Escherichia coli; greater than 10 µM with Klebsiella pneumoniae; greater than 10 µM in the test with Pseudomonas aeruginosa; greater than 10 µM against Acinetobacter baumannii. This molecule also returned an MIC in the test on Candida albicans greater than 10 µM.

With `O=C1O[C@@H](CO)CN1c1cc(F)c(C2=CCN(Cc3ccccc3)CC2)c(F)c1`, the CC50 with HEK293 was greater than 10 µM. Besides, the MIC with Cryptococcus neoformans, with Staphylococcus aureus, with Escherichia coli, against Klebsiella pneumoniae, in the test on Pseudomonas aeruginosa and in the test on Acinetobacter baumannii was greater than 10 µM in each case. The molecule also displayed an MIC in the test with Candida albicans greater than 10 µM.

`Cn1c(=O)c2c(S(C)(=O)=O)snc2n(C)c1=O` came in with a CC50 in the test with HEK293 of 9.72 µM. The MIC against Cryptococcus neoformans, against Staphylococcus aureus, in the test on Escherichia coli, in the test on Klebsiella pneumoniae, with Pseudomonas aeruginosa and with Acinetobacter baumannii was greater than 10 µM each time. In the test on Candida albicans, this molecule displayed an MIC greater than 10 µM.

`CCCn1c(NC(=O)c2ccc3ccccc3n2)nc2ccccc21` had a CC50 in the test with HEK293 greater than 10 µM. For the same molecule, the MIC with Cryptococcus neoformans, with Staphylococcus aureus, in the test on Escherichia coli, in the test with Klebsiella pneumoniae, with Pseudomonas aeruginosa and with Acinetobacter baumannii was greater than 10 µM each time. Besides, the MIC in the test on Candida albicans is greater than 10 µM.

Regarding `Nc1ccc2ncnc(Nc3ccc(OCc4cccc(F)c4)c(Cl)c3)c2c1`, the CC50 with HEK293 is greater than 10 µM. The MIC in the test on Cryptococcus neoformans, with Staphylococcus aureus, against Escherichia coli, against Klebsiella pneumoniae, with Pseudomonas aeruginosa and with Acinetobacter baumannii was greater than 10 µM each time. The same molecule returned an MIC with Candida albicans greater than 10 µM.

Take `NCCN(C(=O)c1ccc(Cl)cc1Cl)c1ccc(OCc2ccc(Cl)cc2)cc1`: the CC50 in the test with HEK293 was greater than 10 µM. Besides, the MIC was greater than 10 µM in the test on Cryptococcus neoformans; 10 µM (≈ 4.5 µg/mL) in the test on Staphylococcus aureus; greater than 10 µM in the test on Escherichia coli; greater than 10 µM against Klebsiella pneumoniae; greater than 10 µM with Pseudomonas aeruginosa; greater than 10 µM against Acinetobacter baumannii. The MIC in the test on Candida albicans was greater than 10 µM.

The molecule `CO/N=C(\C(=O)OC)c1ccccc1CO/N=C(\C)c1cccc(C(F)(F)F)c1` showed a CC50 in the test with HEK293 greater than 10 µM. Further, the MIC with Cryptococcus neoformans, against Staphylococcus aureus, with Escherichia coli, in the test on Klebsiella pneumoniae, in the test on Pseudomonas aeruginosa and against Acinetobacter baumannii was greater than 10 µM throughout. Moreover, the MIC in the test on Candida albicans is greater than 10 µM.

`Cc1[nH]c2ccccc2c1C(c1cccs1)N1CCN(C)CC1` (configuration not stated): in the test with HEK293, the CC50 was greater than 10 µM. The MIC with Cryptococcus neoformans, in the test with Staphylococcus aureus, in the test on Escherichia coli, with Klebsiella pneumoniae, against Pseudomonas aeruginosa and against Acinetobacter baumannii was greater than 10 µM in each case. Moreover, in the test on Candida albicans, the MIC stood at 5 µM (≈ 1.63 µg/mL).

In the test on HEK293, `CC(=O)NCC1CN(c2ccc(-c3ccc(CNCc4cn[nH]n4)cc3)c(F)c2)C(=O)O1` (configuration not stated) registered a CC50 greater than 10 µM. The MIC against Cryptococcus neoformans was greater than 10 µM; against Staphylococcus aureus, 10 µM (≈ 4.38 µg/mL); in the test with Escherichia coli it was greater than 10 µM; in the test on Klebsiella pneumoniae, greater than 10 µM; in the test on Pseudomonas aeruginosa, greater than 10 µM; in the test with Acinetobacter baumannii, greater than 10 µM. The same molecule gave an MIC with Candida albicans greater than 10 µM.

As for `O=C(Nc1ccc(N2CCNCC2)cc1)c1ccn2ncc(-c3cccc(Cl)c3)c2n1`, half-maximal cytotoxicity in the test with HEK293 (CC50) was put at 9.02 µM. The MIC in the test on Cryptococcus neoformans, in the test with Staphylococcus aureus, with Escherichia coli, in the test on Klebsiella pneumoniae, in the test on Pseudomonas aeruginosa and in the test with Acinetobacter baumannii was greater than 10 µM each time. In the test with Candida albicans, the MIC was greater than 10 µM.

Take `Cc1nc(-c2ccccn2)nc(N(C)CCc2ccccc2)c1Cl`: the CC50 with HEK293 is greater than 10 µM. Also, the MIC in the test with Cryptococcus neoformans, in the test with Staphylococcus aureus, in the test on Escherichia coli, in the test on Klebsiella pneumoniae, in the test with Pseudomonas aeruginosa and against Acinetobacter baumannii was greater than 10 µM each time. The MIC in the test on Candida albicans is greater than 10 µM.

With `COc1cc(C2=NCCN2)cc2cc(-c3ccc(C4=NCCN4)cc3)oc12`, in the test with HEK293, the half-maximal cytotoxic concentration (CC50) is greater than 10 µM. The MIC in the test with Cryptococcus neoformans, against Staphylococcus aureus, against Escherichia coli, against Klebsiella pneumoniae, in the test on Pseudomonas aeruginosa and in the test with Acinetobacter baumannii was greater than 10 µM throughout. The same molecule returned an MIC with Candida albicans greater than 10 µM.

Molecule `Cc1ccc2c(c1C)NC(=O)C21NN=C(c2ccccc2)S1` (configuration not stated) had a CC50 with HEK293 greater than 10 µM. The MIC against Cryptococcus neoformans, with Staphylococcus aureus, in the test with Escherichia coli, against Klebsiella pneumoniae, in the test on Pseudomonas aeruginosa and with Acinetobacter baumannii was greater than 10 µM throughout. In addition, in the test with Candida albicans, the MIC is greater than 10 µM.

Consider `CC(=O)NC[C@@H]1CN(c2ccc(N3CCOCC3)c(F)c2)C(=O)O1`, for which the CC50 in the test on HEK293 is greater than 10 µM. Also, the MIC against Cryptococcus neoformans is greater than 10 µM; with Staphylococcus aureus, 2.5 µM (≈ 0.843 µg/mL); against Escherichia coli, greater than 10 µM; in the test on Klebsiella pneumoniae, greater than 10 µM; in the test on Pseudomonas aeruginosa, greater than 10 µM; in the test with Acinetobacter baumannii, greater than 10 µM. Also, the MIC with Candida albicans was greater than 10 µM.
